Ends that are not written are not given here.
Columns and labels:
RAW 264.7 cells [1] = assay: LPS-stimulated ROS generation (H2DCFDA fluorescence microscopy); format: cell-based, murine; settings: RAW 264.7, peptides 8 µM pre-incubated 30 min, P. aeruginosa LPS 100 ng/mL, 24 h
Experimental: Figure 3 CD spectra of peptides in LPS and effects of peptides on reactive oxygen species (ROS) production. (A) Secondary structures of WIK-10, WIR-10, WIK-14, and WIKE-14 peptides (50 µM) in 1 µg/mL Pseudomonas aeruginosa LPS. (B) RAW 264.7 cells were pre-incubated in the absence or presence of peptides (8 µM) for 30 min and treated with or without LPS (100 ng/mL). After 24 h incubation, the cells were treated using H2DCFDA and incubated for […], following which the fluorescent cells were observed under a fluorescence microscope.
RAW 264.7 cells (1 × 10^6 cells/mL) plated in a 24-well plate were pre-cultured for 24 h. Peptides in RPMI-1640 medium were then pretreated to cells for 30 min and P. aeruginosa LPS (100 ng/mL) was added, followed by additional incubation for 24 h. Control cells are not treated with peptides and LPS. H2DCFDA (10 µL, final concentration 10 µM) was treated to the cells, followed by incubation for 30 min in a CO2 incubator. The cells washed with cold-PBS buffer were then observed using a fluorescence microscope (OPTINIT KCS3-160S; Korea Lab Tech, Seongnam, Gyeonggi-do, Republic of Korea).

Balb/c mice lungs = assay: LPS-induced acute lung injury (ALI) in mice; format: in vivo; settings: 1 mg/kg intratracheal, 3 days, histology
Experimental: Figure 8 In vivo anti-inflammatory effects of peptides in acute lung injury. Pseudomonas aeruginosa LPS (500 ng) was intratracheally instilled in mice lungs. One hour after instillation, peptides were intratracheally administered, followed by monitoring for 3 days. Lungs collected from the euthanized mice were digitally visualized and tissues were stained using eosin/alcian blue, H&E, PE-conjugated TNF-α, and IL6 antibody. Bar is 50 µm.
P. aeruginosa LPS (500 ng) in 50 µL PBS was intratracheally instilled into seven-week-old female Balb/c mice. One hour after exposure, each peptide was intratracheally administered at the indicated dose in 50 µL PBS. Control mice were injected with 50 µL PBS without the peptides. Mice were monitored for signs of morbidity for 3 days after LPS exposure. Mice were euthanized using CO2 inhalation, and the lung tissues were excised and fixed in 4% paraformaldehyde. The fixed tissues were dehydrated using a series of ethanol solutions (50−100%) and embedded in paraffin. The tissues embedded with paraffin were sectioned with a thickness of 5 µm (Leica microtome, Deerfield, MA, USA). Histopathology of the lung tissues was performed using alcian blue and eosin and H&E staining. […] The stained tissue sections were observed under a fluorescence microscope (OPTINIT KCS3-160S; Korea Lab Tech, Seongnam, Gyeonggi-do, Republic of Korea).

[2] = test system: Escherichia coli, Pseudomonas aeruginosa, Staphylococcus aureus, and Listeria monocytogenes; format: cell-based
Experimental: The antibacterial activity was examined using a microdilution assay with Eschrichia coli (ATCC 25922), P. aeruginosa (ATCC 15692) and Staphylococcus aureus (ATCC 25923), which were obtained from the American Type Culture Collection. Listeria monocytogenes (KCTC 3710) was obtained from the Korean Collection for Type Cultures. Cell survival was investigated using the 3-(4,5-dimethylthiazol-2-yl)-2,5-diphenyltetrazolium bromide assay in RAW264.7 cells. The assay was performed as described previously.

RAW 264.7 cells [3] = assay: Cytokine mRNA (IL-6, TNF-α) in LPS-stimulated RAW 264.7 cells (RT-PCR); format: cell-based, murine; settings: RAW 264.7, LPS 1 μg/mL, 32 μM peptide, 8 h, compared to only LPS-treated cells
Experimental: (§1) Figure 6 Anti-inflammatory effects of peptides in RAW 264.7 cells. (A) Secreted nitric oxide and tumor necrosis factor-α were measured from the supernatants after 24 h of LPS-stimulation with peptides (32 µM). (B) mRNA expression of RAW 264.7 cells with peptides. IL-6, interleukin-6, TNF- α, tumor necrosis factor-α; GAPDH, Glyceraldehyde 3-phosphate dehydrogenase. 1: control, 2: LPS, 3: LPS+Polymyxin B, 4: LPS+KIW-10, 5: LPS+WIK-10, 6: LPS+RIW-10, 7: LPS+WIR-10, 8: LPS+KIW-14, 9: LPS+WIK-14, 10: LPS+WIKE-14.
RAW 264.7 cells were cultured in RPMI-1640 medium containing 10% FBS, and then seeded to 5 × 10^6 cells/mL in a 6-well plate and cultured at 37 °C, 5% CO2 incubator for 24 h. Each well was treated with 1 μg/mL of LPS; after 1 h, 32 μM of each peptide was added and incubated for 8 h. Cells were collected, and total RNA was isolated using TRIzol reagent (Thermo Fisher Scientific, Waltham, MA, USA). 5′-[…]-3′ and 5′-[…]-3′ as Glyceraldehyde 3-phosphate dehydrogenase primers, 5′-[…]-3′ and 5′-[…]-3′ as IL-6 primers, and 5′-[…]-3′ and 5′-[…]-3′ as TNF-α primers were used for reverse transcription-polymerase chain reaction (RT-PCR). The PCR products generated using the Maxime RT-PCR premix kit (IntronBio, Seongnam, Gyeonggi-do, Republic of Korea) were confirmed using electrophoresis.

[4] = test system: binding between LPS and RAW 264.7 cells; assay: Inhibition of FITC-LPS binding to RAW 264.7 cells (fluorescence microscopy and flow cytometry); format: cell-based, murine; settings: FITC-LPS 1 µg/mL, fluorescence microscopy, dose-dependent
Experimental: Figure 4 Inhibitory effects of peptides on binding between LPS and RAW 264.7 cells. Fluorescein isothiocyanate-labeled LPS and peptides were incubated for 12 h with RAW 264.7 cells, and cells were washed with PBS, followed by observation using fluorescence microscopy.
RAW 264.7 cells cultured in Roswell Park Memorial Institute Medium (RPMI)-1640 containing 10% fetal bovine serum (FBS) were aliquoted to 1 × 10^6 cells/mL in a 24-well plate, and cultured at 37 °C, 5% CO2 incubator for 24 h. Each well was treated with 1 µg/mL of FITC-attached LPS. After 1 h, peptides were added to the wells at the indicated concentrations. After incubation for 8 h, the cells were washed with cold-PBS, observed under a fluorescence microscope, and measured using flow cytometry (Beckman Coulter CytoFlex, Brea, CA, USA).

RAW 264.7 cells [5] = assay: Nitric oxide production in LPS-stimulated RAW 264.7 cells (Griess); format: cell-based, murine; settings: RAW 264.7, P. aeruginosa LPS 1 µg/mL, peptides 32 µM, 24 h, Griess reagent
Experimental: as §1
The murine macrophage cell RAW 264.7 was grown RPMI-1640 medium supplemented with 10% FBS and then plated at a density of 1 × 10^6 cells/mL in a 24-well microplate. After incubation for 24 h, the cells were stimulated with P. aeruginosa LPS (1 µg/mL), followed by further incubation for 1 h. Peptides were incubated for 24 h. Nitrite was measured by adding 100 µL of cell culture extract to 100 µL of Griess reagent (1% sulfanilamide and 0.1% naphthylenediamine in 5% phosphoric acid). The nitrite concentrations were calculated by comparing the absorbance of sodium nitrite standard solutions. The optical density was evaluated at 550 nm in a microplate reader (Molecular Devices, Emax, CA, USA). TNF-α levels in culture supernatants were analyzed using the R&D system TNF-α EASIA kit, Minneapolis, MN, USA). The developed color was determined by measuring the OD at 490 nm in a microplate reader.

## melittin
RAW 264.7 cells [1]
  ROS-producing level of LPS-treated cells: significantly reduced

## WIKKIWKKIIKKIK-NH2 [WIK-14]
Balb/c mice lungs
  toxicity in lung tissue cells, peptide alone: toxic
[2]
  GM, geometric mean of minimum inhibitory concentration values: 2.1 ± 0.4 µM

## RRIWRRWIRI-NH2 [RWI-10]
[2]
  GM, geometric mean of minimum inhibitory concentration values: 7 ± 1.2 µM

## KKIWKKWIKKIIKI-NH2 [KWI-14]
[2]
  GM, geometric mean of minimum inhibitory concentration values: 2.6 ± 0.8 µM

## KKIIKKIIKKIWKW-NH2 [KIW-14]
[2]
  GM, geometric mean of minimum inhibitory concentration values: 2.6 ± 1.2 µM

## KKIWKKWIKI-NH2 [KWI-10]
[2]
  GM, geometric mean of minimum inhibitory concentration values: 10.5 ± 1.2 µM

## polymyxin B
RAW 264.7 cells [3]
  expression levels of IL-6 and TNF-α (mRNA): clearly decreased
RAW 264.7 cells [1]
  ROS-producing level of LPS-treated cells: significantly reduced
[4]
  FITC fluorescence signals in RAW 264.7 cells (FITC-LPS binding): dramatically decreased
RAW 264.7 cells [5]
  LPS-induced NO secretion: inhibited

## WIKKIWKKIIKEIK-NH2 [WIKE-14]
Balb/c mice lungs
  toxicity in lung tissue cells, peptide alone: non-toxic
[2]
  GM, geometric mean of minimum inhibitory concentration values: 8 ± 0.8 µM

## KKIIKKIWKW-NH2 [KIW-10]
[2]
  GM, geometric mean of minimum inhibitory concentration values: 11 ± 1 µM

## WIRRIWRRIR-NH2 [WIR-10]
[2]
  GM, geometric mean of minimum inhibitory concentration values: 3 ± 0.2 µM

## RRIIRRIWRW-NH2 [RIW-10]
[2]
  GM, geometric mean of minimum inhibitory concentration values: 8.5 ± 0.8 µM

## WIKKIWKKIK-NH2 [WIK-10]
[2]
  GM, geometric mean of minimum inhibitory concentration values: 6.5 ± 0.8 µM

Source: publication PMC9686674, “Potent Anti-Inflammatory Effects of a Helix-to-Helix Peptide against Pseudomonas aeruginosa Endotoxin-Mediated Sepsis” (Antibiotics, 2022)
